Results taken from the supplement of paper PMC11451515.

What was measured:
[1] = tested on: NOMO1; test: cell viability relative to DMSO control; higher = less cytotoxic; conditions: RPMI 5 mM glucose + 10% dialyzed FBS, 48 h
Procedure, shortened: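 Three leukemia lines were tested: NOMO1 and SEM at 500 cells/well and P12-Ichikawa at 1000 cells/well. Each was adapted for at least four passages in each medium and seeded in 5 μl in 1536-well plates, and library compounds in DMSO were pin-dosed from 47 μM to 0.79 nM in 11 threefold steps. After 48 h at 37°C, CellTiter-Glo One luminescence was read. Viability is a percentage relative to DMSO wells on each plate, with cell-free wells as background.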

[2] = tested on: SEM cells; test: AUC of viability dose-response curve (% viability x log10 dose units); higher = less sensitive; conditions: 48 h
Procedure, shortened: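 Leukemia cells adapted to each medium were seeded at 500 or 1000 cells/well in 1536-well plates and dosed with library compounds in DMSO at 11 threefold doses from 47 μM to 0.79 nM for 48 h at 37°C. CellTiter-Glo One luminescence was normalised per plate to DMSO and cell-free wells, then fitted with a four-parameter log-logistic model over log10 doses. Area under the curve was taken from this fit by the trapezoidal rule, with curves above full viability scaled and curves failing quality control removed.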

[3] = RPMI 5 mM glucose + 10% dialyzed FBS

Row | SMILES | cell viability ([1]; 0.000781 µM) [%] | cell viability ([1]; 0.00234 µM) [%] | cell viability ([1]; 0.00702 µM) [%] | cell viability ([1]; 0.0211 µM) [%] | cell viability ([1]; 0.0632 µM) [%] | cell viability ([1]; 0.19 µM) [%] | cell viability ([1]; 0.569 µM) [%] | cell viability ([1]; 1.71 µM) [%] | cell viability ([1]; 5.12 µM) [%] | cell viability ([1]; 15.4 µM) [%] | cell viability ([1]; 46.1 µM) [%] | AUC of viability dose-response curve ([2]; HPLM + 10% dialyzed FBS) | AUC of viability dose-response curve ([2]; RPMI 5 mM glucose + 10% FBS) | AUC of viability dose-response curve [2, 3]
1 | C[S+](=O)([O-])c1ccc(C(=O)Nc2ccc(Cl)c(-c3ccccn3)c2)c(Cl)c1 | 119 | 110 | 138 | 143 | 130 | 136 | 139 | 144 | 144 | 135 | 128 | – | – | –
2 | COc1cc2nc(N3CCN(C(=O)C4CCCO4)CC3)nc(N)c2cc1OC (configuration not stated) | – | – | – | – | – | – | – | – | – | – | – | 430 | 460 | 418
3 | CCN(CC)CCCCNc1ncc2c(n1)N(C)C(=O)N(c1c(Cl)c(OC)cc(OC)c1Cl)C2 | – | – | – | – | – | – | – | – | – | – | – | 423 | 421 | 422
